Test results: paper PMC4138103 (PLoS ONE, 2014)
Where “and” joins values, the source holds several entries; their conditions need not be identical. Identical values can stand only once.

Tested on: Sprague-Dawley rats
Experiment: Retinoid analyses in liver, serum and kidney
Assay type: in vivo, Rattus norvegicus
Conditions: males
Procedure: Retinoids in liver, serum, and kidney were analyzed according to Schmidt et al.. The polar retinoids 9-cis-retinoic acid (9-cis-RA), 13-cis-retinoic acid (13-cis-RA), 13-cis-4-oxo-retinoic acid (13-cis-4-o-RA), 9-cis-4-oxo-13,14-dihydro-retinoic acid (9-cis-4-o-13,14-dh-RA), all-trans retinoic acid (all-trans RA) and the apolar retinoids retinol and retinyl palmitate were extracted by a single liquid-extraction, separated from each other via solid-phase extraction using an aminopropyl phase, and then injected onto two different HPLC systems that were coupled with UV detection. […] The limits of detection (LOD) for all-trans RA and 9c-4o-13,14-dh-RA were 0.7 and 1.0 pmol/g tissue, and 0.3 and 0.6 pmol/ml serum, respectively. Retinol and retinyl palmitate were separated on a J'sphere ODS-H80 (4.6×150 mm, 4 µm particle size) obtained from YMC (Schermbeck, Germany), and were detected at 325 nm. The LOD for retinol and retinyl palmitate were 5.6 and 5.5 pmol/g tissue, and 4.2 and 4.2 pmol/ml serum, respectively.
Data were also analyzed using the BMD method, which is based on dose-response modeling of the full data set using a nested family of exponential and Hill models. The analyses were done on data of males and females combined, using sex as a covariate. […] In that case, different Critical Effect Doses (CEDs) and CEDs at the lowest bound of the confidence interval (CED-L) were generated for each sex. If no difference between sexes is detected, a CED and CED-Ls for the combined data is generated. However, this was also done if the curve fits are close, and separate analyses for males and females were then performed manually. CEDs and CED-Ls were calculated at the predefined Critical Effect Size (CES) of 5% (EFSA standard) or 10%.

[1] = total dose 100 mg/kg bw, group mean, N=5
[2] = total dose 300 mg/kg bw, group mean, N=5
[3] = total dose 1000 mg/kg bw, group mean, N=5
[4] = total dose 1700 mg/kg bw, group mean, N=5
[5] = adipose tissue concentration based
[6] = controls vs high dose, fitted model

Clc1cc(Cl)c(-c2cc(Cl)c(Cl)c(Cl)c2Cl)cc1Cl [PCB 180, 2,2′,3′,4,4′,5,5′-heptachlorobiphenyl]
Liver Retinyl esters (total dose 100 mg/kg bw, Liver): 84.5 pmol/mL | Liver Retinol (total dose 100 mg/kg bw, Liver, n=4): 1.75 pmol/mL | Kidney All-trans RA [1]: 37.0 pmol | Kidney Retinol [1]: 17.3 nmol | Kidney Retinyl esters [1]: 8.84 nmol | Liver All-trans RA [1]: 744 pmol | Liver Retinol [1]: 0.26 µmol | Liver Retinyl esters [1]: 10.3 µmol | Liver 9-cis-4o-13,14-dh-RA (total dose 100 mg/kg bw, n=3): 22.7 pmol/g | Serum Retinol (total dose 100 mg/kg bw, n=4): 1.75 pmol/mL | Kidney All-trans RA (total dose 300 mg/kg bw): 35.9 pmol/g | Kidney Retinol (total dose 300 mg/kg bw): 17.5 nmol/g | Kidney Retinyl esters (total dose 300 mg/kg bw): 13.9 nmol/g | Liver All-trans RA (total dose 300 mg/kg bw): 48.1 pmol/g | Liver Retinol (total dose 300 mg/kg bw): 17.4 nmol/g | Liver Retinyl esters (total dose 300 mg/kg bw): 0.56 µmol/g | Serum Retinol (total dose 300 mg/kg bw): 1.64 pmol/mL | Serum Retinyl esters (total dose 300 mg/kg bw): 67.8 pmol/mL | Liver Retinol (total dose 300 mg/kg bw, Liver): 1.64 pmol/mL | Liver Retinyl esters (total dose 300 mg/kg bw, Liver): 67.8 pmol/mL | Kidney All-trans RA [2]: 37.8 pmol | Kidney Retinol [2]: 18.2 nmol | Kidney Retinyl esters [2]: 14.5 nmol | Liver All-trans RA [2]: 863 pmol | Liver Retinol [2]: 0.31 µmol | Liver Retinyl esters [2]: 10.1 µmol | Liver 9-cis-4o-13,14-dh-RA (total dose 300 mg/kg bw, n=4): 20.9 pmol/g | Kidney All-trans RA [3]: 35.9 pmol | Kidney Retinol [3]: 24.5 nmol | Kidney Retinyl esters [3]: 24.5 nmol | Liver 9-cis-4o-13,14-dh RA [3]: 455 pmol | Liver All-trans RA [3]: 1077 pmol | Liver Retinol [3]: 0.27 µmol | Liver Retinyl esters [3]: 8.2 µmol | Kidney All-trans RA [4]: 32.4 pmol | Kidney Retinol [4]: 23.3 nmol | Kidney Retinyl esters [4]: 25.2 nmol | Liver All-trans RA [4]: 1178 pmol | Liver Retinol [4]: 0.23 µmol | Liver Retinyl esters [4]: 6.4 µmol | Kidney retinol amount, CED (CES 5%, total dose based): 206 mg/kg bw | Kidney retinol amount, CED-L (CES 5%, total dose based): 147 mg/kg bw | Kidney retinol concentration, CED (CES 5%, total dose based): 200 mg/kg bw | Kidney retinol concentration, CED-L (CES 5%, total dose based): 149 mg/kg bw | Kidney retinyl esters amount, CED (CES 5%, total dose based): 9.14 mg/kg bw | Kidney retinyl esters amount, CED-L (CES 5%, total dose based): 3.10 mg/kg bw | Kidney retinyl esters concentration, CED (CES 5%, total dose based): 9.9 mg/kg bw and 9.88 mg/kg bw | Kidney retinyl esters concentration, CED-L (CES 5%, total dose based): 3.35 mg/kg bw | Liver all-trans RA amount, CED (CES 5%, total dose based): 21.7 mg/kg bw | Liver all-trans RA amount, CED-L (CES 5%, total dose based): 9.07 mg/kg bw | Liver all-trans RA concentration, CED (CES 5%, total dose based): 450 mg/kg bw | Liver all-trans RA concentration, CED-L (CES 5%, total dose based): 268 mg/kg bw | Liver retinol amount, CED (CES 5%, total dose based): 437 mg/kg bw | Liver retinol amount, CED-L (CES 5%, total dose based): 261 mg/kg bw | Liver retinol concentration, CED (CES 5%, total dose based): 32 mg/kg bw and 31.9 mg/kg bw | Liver retinol concentration, CED-L (CES 5%, total dose based): 6.10 mg/kg bw | Liver retinyl esters amount, CED (CES 5%, total dose based): 145 mg/kg bw | Liver retinyl esters amount, CED-L (CES 5%, total dose based): 123 mg/kg bw | Liver retinyl esters concentration, CED (CES 5%, total dose based): 22 mg/kg bw and 21.5 mg/kg bw | Liver retinyl esters concentration, CED-L (CES 5%, total dose based): 12.9 mg/kg bw | Kidney retinol amount, CED (CES 10%, total dose based): 402 mg/kg bw | Kidney retinol amount, CED-L (CES 10%, total dose based): 288 mg/kg bw | Kidney retinol concentration, CED (CES 10%, total dose based): 390 mg/kg bw | Kidney retinol concentration, CED-L (CES 10%, total dose based): 291 mg/kg bw | Kidney retinyl esters amount, CED (CES 10%, total dose based): 18.5 mg/kg bw | Kidney retinyl esters amount, CED-L (CES 10%, total dose based): 6.26 mg/kg bw | Kidney retinyl esters concentration, CED (CES 10%, total dose based): 20 mg/kg bw | Kidney retinyl esters concentration, CED-L (CES 10%, total dose based): 6.77 mg/kg bw | Liver all-trans RA amount, CED (CES 10%, total dose based): 44.7 mg/kg bw | Liver all-trans RA amount, CED-L (CES 10%, total dose based): 18.7 mg/kg bw | Liver all-trans RA concentration, CED (CES 10%, total dose based): 879 mg/kg bw | Liver all-trans RA concentration, CED-L (CES 10%, total dose based): 523 mg/kg bw | Liver retinol amount, CED (CES 10%, total dose based): 897 mg/kg bw | Liver retinol amount, CED-L (CES 10%, total dose based): 536 mg/kg bw | Liver retinol concentration, CED (CES 10%, total dose based): 56 mg/kg bw | Liver retinol concentration, CED-L (CES 10%, total dose based): 10.4 mg/kg bw | Liver retinyl esters amount, CED (CES 10%, total dose based): 296 mg/kg bw | Liver retinyl esters amount, CED-L (CES 10%, total dose based): 252 mg/kg bw | Liver retinyl esters concentration, CED (CES 10%, total dose based): 43.9 mg/kg bw | Liver retinyl esters concentration, CED-L (CES 10%, total dose based): 26.6 mg/kg bw | Kidney retinol concentration, CED [5]: 863 µg/g lipid | Kidney retinyl ester concentration, CED [5]: 42 µg/g lipid | Liver all-trans RA concentration, CED [5]: 1920 µg/g lipid | Liver retinol concentration, CED [5]: 31 µg/g lipid | Liver retinol, CED-L [5]: 18800 ng/g lipid | Liver retinyl ester concentration, CED [5]: 108 µg/g lipid | Kidney retinol concentration, Maximum response [6]: 51.5% | Liver all-trans RA concentration, Maximum response [6]: 20% and 20.3% | Liver 9-cis-4o-13,14-dh RA (total dose 10 mg/kg bw, group mean, n=3): 163 pmol | Liver 9-cis-4o-13,14-dh RA (total dose 30 mg/kg bw, n=1): 389b pmol | Liver 9-cis-4o-13,14-dh-RA (total dose 30 mg/kg bw, n=1): 30.8 pmol·days/g | Liver 9-cis-4o-13,14-dh RA (total dose 100 mg/kg bw, group mean, n=3): 434 pmol | Liver 9-cis-4o-13,14-dh RA (total dose 300 mg/kg bw, group mean, n=4): 403 pmol | Liver 9-cis-4o-13,14-dh RA (total dose 1700 mg/kg bw, group mean, n=4, one exceptionally high value excluded as an outlier): 454 pmol
